The record followed here is PubChem BioAssay (NCI).

Several values for one entry are separate records, joined by “and”; a condition that tells them apart may be missing. Equal entries are not always repeated.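 Exposure lasted 48 hours, with cells grown in 96-well plates and compounds tested at five concentrations. GI50 marks 50% less growth. At the TGI there is no net growth.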

Some test systems named below: SW-620 colon; RXF 393 renal; A549 NSCLC; CAKI-1 renal; HCC-2998 colon; ACHN renal; UACC-257 melanoma; CCRF-CEM leukemia; M14 melanoma.
Test in all cases: inhibition of tumour cell growth, NCI panel, 48 h

In the case of `Nc1n[nH]c(CCc2nc(N)n[nH]2)n1`, the TGI in the assay with SW-620 colon, in the assay on RXF 393 renal, in the assay with A549 NSCLC, in the assay on CAKI-1 renal, in the assay on HCC-2998 colon and in the assay on ACHN renal was over 100 µM each time. The TGI with UACC-257 melanoma, in the assay with CCRF-CEM leukemia and in the assay with M14 melanoma was over 100 µM each time.

On to `Cc1cc2c(C)n(Cc3ccc(Cl)cc3Cl)nc2c(C(=O)O)c1C`, for which the TGI in the assay on SW-620 colon, in the assay with RXF 393 renal, with A549 NSCLC, in the assay with HCC-2998 colon, with ACHN renal and in the assay with UACC-257 melanoma was over 100 µM each time. The TGI in the assay on CCRF-CEM leukemia is over 100 µM.

`CC1(C)OC(=O)C=C([O-])O1.CC1(C)OC(=O)C=C([O-])O1.CC[O-].CC[O-].[Ti+4]`: the GI50 in the assay with SW-620 colon, in the assay on A549 NSCLC, with CAKI-1 renal, in the assay with HCC-2998 colon, with ACHN renal and with UACC-257 melanoma was over 100 µM in each case. In the assay on M14 melanoma, the GI50 was over 100 µM. Further, the TGI in the assay on SW-620 colon, in the assay on A549 NSCLC, in the assay with CAKI-1 renal, in the assay on HCC-2998 colon, in the assay with ACHN renal and with UACC-257 melanoma was over 100 µM each time. Also, the TGI in the assay on M14 melanoma was over 100 µM.

As to `O=C1c2nc3n(c2C(=O)c2c1nc1n2CCC1)CCC3`, the TGI was 17.2 µM with SW-620 colon; 9.59 µM in the assay with RXF 393 renal; 18.1 µM in the assay with A549 NSCLC; 23.9 µM in the assay with CAKI-1 renal; 21 µM with HCC-2998 colon; 23.9 µM in the assay with ACHN renal. The TGI in the assay on UACC-257 melanoma was 5.6 µM and 5.72 µM; with CCRF-CEM leukemia, 31.4 µM; in the assay with M14 melanoma it was 4.65 µM. The GI50 was 5.11 µM in the assay with A549 NSCLC, 2.47 µM in the assay with UACC-257 melanoma and 4.88 µM in the assay on M14 melanoma.

As for `O=C(Nc1ccn(CCI)c(=O)n1)c1ccccc1`, the TGI in the assay with SW-620 colon, with RXF 393 renal, with A549 NSCLC, in the assay with CAKI-1 renal, in the assay on ACHN renal and in the assay on UACC-257 melanoma was over 100 µM each time. Also, the TGI in the assay with CCRF-CEM leukemia and with M14 melanoma was over 100 µM in each case.

Take `CC1=C(C(=O)Nc2ccc([N+](=O)[O-])cc2)C(c2ccccc2F)C(C(=O)Nc2ccc([N+](=O)[O-])cc2)=C(C)N1`: the TGI was over 100 µM with SW-620 colon; 79.2 µM in the assay with RXF 393 renal; over 100 µM in the assay on A549 NSCLC; 68.9 µM in the assay with CAKI-1 renal; 29.1 µM with HCC-2998 colon; 39.8 µM with ACHN renal. For the same compound, the TGI in the assay on UACC-257 melanoma amounted to 48.7 µM; in the assay on CCRF-CEM leukemia, 48.7 µM; in the assay on M14 melanoma, 49.4 µM.

`CCCCCCC(/C=N/O)C(C)(O)CCC` (configuration not stated): the TGI in the assay on SW-620 colon, in the assay with RXF 393 renal, with A549 NSCLC, in the assay with CAKI-1 renal, in the assay with HCC-2998 colon and in the assay on ACHN renal was over 100 µM throughout. The TGI in the assay on UACC-257 melanoma, in the assay with CCRF-CEM leukemia and with M14 melanoma was over 100 µM in each case.

In the case of `CCOC(=O)C1=C(Nc2ccc(Cl)c(Cl)c2)OC/C1=N\NS(=O)(=O)c1ccc(C)cc1`, the TGI was over 100 µM in the assay on SW-620 colon; over 100 µM with RXF 393 renal; over 100 µM in the assay with A549 NSCLC; over 100 µM in the assay on CAKI-1 renal; over 100 µM in the assay on HCC-2998 colon; 61.7 µM with UACC-257 melanoma. The TGI in the assay with CCRF-CEM leukemia and with M14 melanoma was over 100 µM each time.

As for `COC(=O)C1=C(c2ccc3c(c2)OCO3)OC(c2cc(OC)c(OC)c(OC)c2)C1` (configuration not stated), the TGI with SW-620 colon, in the assay with A549 NSCLC, with CAKI-1 renal, in the assay on HCC-2998 colon, in the assay on ACHN renal and in the assay on UACC-257 melanoma was over 100 µM each time. Moreover, the TGI in the assay with CCRF-CEM leukemia is over 100 µM; in the assay on M14 melanoma it was 84.1 µM.

With `CCC(Oc1ccc(OC)c2ccccc(=O)c12)C(=O)O` (configuration not stated), the TGI with SW-620 colon, with RXF 393 renal, with A549 NSCLC, in the assay on HCC-2998 colon, with ACHN renal and in the assay on UACC-257 melanoma was over 100 µM in each case. The TGI in the assay with CCRF-CEM leukemia and with M14 melanoma was over 100 µM in each case.

Turning to `Cc1cccc(C(C)(C)C)c1NC(=O)CC1Sc2ccccc2NC1=O` (configuration not stated), the TGI with SW-620 colon is 32.6 µM; in the assay on A549 NSCLC it was over 100 µM; in the assay on CAKI-1 renal, over 100 µM; in the assay on HCC-2998 colon, over 100 µM; in the assay on ACHN renal, over 100 µM; in the assay on UACC-257 melanoma, over 100 µM. Moreover, the TGI in the assay on CCRF-CEM leukemia and in the assay with M14 melanoma was over 100 µM throughout.

Regarding `CN1CC(=O)N(C)c2nc[nH]c2C1=O`, the TGI with SW-620 colon, in the assay on RXF 393 renal, with A549 NSCLC, with HCC-2998 colon, with ACHN renal and in the assay on CCRF-CEM leukemia was over 100 µM each time. Moreover, the TGI with M14 melanoma is over 100 µM.
